{
  "source": "patent US12076304B2",
  "about": "“Compositions comprising 15-HEPE and methods of treating or preventing hematologic disorders, and/or related diseases” (priority 2020, dated 2024)",
  "key": {"TGF-β mRNA [1]": {"tested_on": "TGF-β mRNA", "assay": "UUO mice kidney quantitative RT-PCR, TGF-β", "format": "in vivo", "protocol": "(§1) Quantitative RT-PCR: Total ribonucleic acid (RNA) was extracted from kidney samples using RNAiso (Takara Bio, Japan) according to the manufacturer's instructions. One μg of RNA was reverse-transcribed using a reaction mixture containing 4.4 micromolar (mM) of magnesium chloride (MgCl2) (F. Hoffmann-La Roche, Switzerland), 40 U RNase inhibitor (Toyobo, Japan), 0.5 mM dNTP (Promega, USA), 6.28 μM random hexamer (Promega), 5× first strand buffer (Promega), 10 mM dithiothreitol (Invitrogen, USA) and 200 U MMLV-RT (Invitrogen) in a final volume of 20 μL. The reaction was carried out for 1 hour at 37° C., followed by 5 minutes at 99° C. Real-time PCR was performed using real-time PCR DICE and TB Green™ Premix Ex Taq™ II (Takara Bio). To calculate the relative microRNA (mRNA) expression level, the expression of each gene (e.g., α-SMA, TIMP-1, TGF-β and Collagen Type 1) was normalized to that of reference gene 36B4 (gene symbol: Rplp0). Information regarding the PCR-primer sets and the plate layout are described in Tables 1 and 2."}, "NAFLD patients [2]": {"tested_on": "NAFLD patients", "assay": "Phase IIa study in NAFLD patients: adverse events", "format": "in vivo, human", "description": "(§2) The study was planned to include 96 evaluable patients with 32 patients randomized per treatment group."}, "TGF-β mRNA [3]": {"tested_on": "TGF-β mRNA", "assay": "BDL mice liver quantitative RT-PCR, TGF-β", "format": "in vivo", "settings": "for TGF-β relative mRNA expression level: BDL mice liver, normalized to 36B4, Sham 1.00, mean ± SD", "protocol": "as §1, with “from liver” for “from kidney”, “4.4 mM” for “4.4 micromolar (mM) of”, “relative mRNA” for “relative microRNA (mRNA)”, “gene (α-SMA,” for “gene (e.g., α-SMA,”, “Tables 8” for “Tables 1”, “and 9.” for “and 2.”"}, "NAFLD patients [4]": {"tested_on": "NAFLD patients", "assay": "Phase IIa study in NAFLD patients: metabolic and glycemic parameters", "format": "in vivo, human", "protocol": "as §2\nHOMA-IR/Adipo-IR: HOMA-IR/Adipo-IR levels are a method of measuring insulin resistance. HOMA-IR is calculated by multiplying fasting plasma insulin (FPI) by fasting plasma glucose (FPG), then dividing by the constant 405. Adipo-IR is calculated by multiplying fasting non-esterified fatty acids (NEFA)×fasting insulin. Blood samples were taken to assess HOMA-IR and Adipo-IR at Visit 2/Baseline, Visit 3/Week 2, Visit 4/Week 4, Visit 6/Week 8, Visit 8/Week 12, Visit 10/Week16 and Follow up Visit 11/Week 20. All subjects were required to have been fasted for a minimum of 8 hours prior to blood sampling. If subjects had not fasted for a minimum of 8 hours, the duration of fasting time was recorded, and subjects encouraged to fast appropriately for the next clinical visit.\nExploratory analysis: The exploratory analysis included analysis of lipid and metabolic parameters including total cholesterol, triglycerides, very low-density lipoprotein cholesterol (VLDL-C), low density lipoprotein cholesterol (LDL-C), high density lipoprotein cholesterol (HDL-C), non-high-density lipoprotein cholesterol (non-HDL-C), remnant-like particle cholesterol (RLP-C), fasting glucose, insulin, free fatty acids and hemoglobin A1C (HbA1C). Additional exploratory analysis included high throughput lipidomics and proteomics."}, "NAFLD patients [5]": {"tested_on": "NAFLD patients", "assay": "Phase IIa study in NAFLD patients: ALP and liver fibrosis markers", "format": "in vivo, human", "settings": "2 g", "protocol": "as §2\nClinical Laboratory Safety Tests: Safety tests were performed for hematology, serum biochemistry, coagulation, lipid profile, and urinalysis: Blood and urine samples were taken as per the Study Flow Chart in Table 19 for routine hematology, serum biochemistry, coagulation and urinalysis tests, along with a Lipid Profile. All samples were analyzed in the central laboratory. All subjects were fasted for a minimum of 8 hours prior to blood sampling. […]"}, "[6]": {"settings": "50 mg/kg PO QD Day 0-13, normalized to 36B4, Sham 1.00, mean ± SD"}, "[7]": {"settings": "1 g or 2 g per day, baseline to Week 16 vs placebo"}},
  "data": [
    {"compound": "CCCCCC(O)/C=C/C=C\\C/C=C\\CCCCCCC(=O)O", "note": "(stereo not drawn) [DS109, 15-HETrE]", "values": [
      {"measurement": "TGF-β relative mRNA expression level", "setting": "TGF-β mRNA [1]; 5 mg/kg PO QD Day 0-13, normalized to 36B4, Sham 1.00, mean ± SD", "value": "4.29 ± 0.93"},
      {"measurement": "TGF-β relative mRNA expression level", "setting": "TGF-β mRNA [1]; [6]", "value": "6.01 ± 4.77"},
      {"measurement": "TGF-β relative mRNA expression level", "setting": "TGF-β mRNA [1]; 250 mg/kg PO QD Day 0-13, normalized to 36B4, Sham 1.00, mean ± SD", "value": "5.48 ± 0.36"}
    ]},
    {"compound": "15-HEPE [DS102]", "values": [
      {"measurement": "TGF-β relative mRNA expression level", "setting": "TGF-β mRNA [1]; [6]", "value": "4.31 ± 0.69"},
      {"measurement": "TGF-β relative mRNA expression level", "setting": "TGF-β mRNA [1]; 500 mg/kg PO QD Day 0-13, normalized to 36B4, Sham 1.00, mean ± SD", "value": "5.37 ± 0.76"},
      {"measurement": "Death, patients n", "setting": "NAFLD patients [2]; 1 g (n = 32)", "value": 0},
      {"measurement": "Patients with ≥1 AE related to study drug, %", "setting": "NAFLD patients [2]; 1 g (n = 32)", "value": "(6.3) %"},
      {"measurement": "Patients with ≥1 AE, %", "setting": "NAFLD patients [2]; 1 g (n = 32)", "value": "(59.4) %"},
      {"measurement": "Death, patients n", "setting": "NAFLD patients [2]; 2 g (n = 30)", "value": 0},
      {"measurement": "Patients with ≥1 AE related to study drug, %", "setting": "NAFLD patients [2]; 2 g (n = 30)", "value": "(10.0) %"},
      {"measurement": "Patients with ≥1 AE, %", "setting": "NAFLD patients [2]; 2 g (n = 30)", "value": "(50.0) %"},
      {"measurement": "Patients with ≥1 SAE, %", "setting": "NAFLD patients [2]; 2 g (n = 30)", "value": "(3.3) %"},
      {"measurement": "drug related serious adverse events (SAEs)", "setting": "NAFLD patients [2]; NAFLD patients, 1 g or 2 g per day, 16 weeks", "value": "no drug related serious adverse events"},
      {"measurement": "safety and tolerance", "setting": "NAFLD patients [2]; NAFLD patients, 1 g or 2 g per day, 16 weeks, compared to placebo", "value": "safe and well tolerated"},
      {"measurement": "TGF-β relative mRNA expression level", "setting": "TGF-β mRNA [3]; 50 mg/kg PO QD Day 0-13", "value": "1.48 ± 0.48"},
      {"measurement": "TGF-β relative mRNA expression level", "setting": "TGF-β mRNA [3]; 250 mg/kg PO QD Day 0-13", "value": "1.50 ± 0.44"},
      {"measurement": "TGF-β relative mRNA expression level", "setting": "TGF-β mRNA [3]; 500 mg/kg PO QD Day 0-13", "value": "1.00 ± 0.23"},
      {"measurement": "TGF-β mRNA expression level compared with the Vehicle group", "setting": "TGF-β mRNA [3]; BDL mice, 500 mg/kg PO QD Day 0-13", "value": "significant decrease"},
      {"measurement": "TGF-β mRNA expression level, Vehicle group vs the DS102 treatment groups", "setting": "TGF-β mRNA [3]; BDL mice, DS102 treatment groups as a whole", "value": "no significant differences"},
      {"measurement": "insulin sensitivity and glycemic control", "setting": "NAFLD patients [4]; 1 g or 2 g per day, 16 weeks", "value": "improvement"},
      {"measurement": "markers of metabolic overload", "setting": "NAFLD patients [4]; 1 g or 2 g per day, 16 weeks", "value": "statistically significant reduction"},
      {"measurement": "insulin resistance indices (HOMA-IR and adipo-IR levels)", "setting": "NAFLD patients [4]; 1 g or 2 g per day, Week 16", "value": "improvement"},
      {"measurement": "HbA1c levels / glycemic control", "setting": "NAFLD patients [4]; [7]", "value": "clinically significant improvements"},
      {"measurement": "insulin, glucose, and free fatty acid levels", "setting": "NAFLD patients [4]; [7]", "value": "reduction"},
      {"measurement": "insulin resistance indices (HOMA-IR and adipo-IR levels)", "setting": "NAFLD patients [4]; 2 g per day, Week 16, Per Protocol Set", "value": "significant improvements"},
      {"measurement": "alkaline phosphate (ALP)", "setting": "NAFLD patients [5]", "value": "reduced"},
      {"measurement": "multiple markers for liver fibrosis", "setting": "NAFLD patients [5]", "value": "reduced"}
    ]}
  ]
}
